According to publication PMC5218480 (PLoS ONE, 2017):

Test system: MV-4-11 cells
Test: Gene expression microarray analysis (Affymetrix PrimeView) and GSEA
Format: cell-based, human
Parameters: RFU PODN (11730768_x_at) / Fold change /veh PODN (11730768_x_at) / RFU LINC00158 (11744669_a_at) / Fold change /veh LINC00158 (11744669_a_at) / RFU DUSP10 (11751237_a_at) / Fold change /veh DUSP10 (11751237_a_at) / RFU ID3 (11757404_x_at) / Fold change /veh ID3 (11757404_x_at) / RFU PLEKHG5 (11737974_s_at) / Fold change /veh PLEKHG5 (11737974_s_at) / RFU LRRC4B (11730491_at) / Fold change /veh LRRC4B (11730491_at) / RFU GIMAP4 (11747438_a_at) / Fold change /veh GIMAP4 (11747438_a_at) / RFU KRT8 (11758183_x_at) / Fold change /veh KRT8 (11758183_x_at) / RFU CNN1 (11734310_a_at) / Fold change /veh CNN1 (11734310_a_at) / RFU VPS37D (11726825_at) / Fold change /veh VPS37D (11726825_at) / RFU C10orf10 (11716522_x_at) / Fold change /veh C10orf10 (11716522_x_at) / RFU KIR2DL2 /// KIR2DL4 /// KIR2DL5A /// KIR2DL5B /// KIR2DS1 /// KIR2DS2 /// KIR2DS3 /// KIR2DS4 /// KIR3DL3 /// KIR3DL3 /// KIR3DS1 (11738374_at) / Fold change /veh KIR2DL2 /// KIR2DL4 /// KIR2DL5A /// KIR2DL5B /// KIR2DS1 /// KIR2DS2 /// KIR2DS3 /// KIR2DS4 /// KIR3DL3 /// KIR3DL3 /// KIR3DS1 (11738374_at) / RFU C1QL1 (11718748_at) / Fold change /veh C1QL1 (11718748_at) / RFU TMPRSS4 (11747572_a_at) / Fold change /veh TMPRSS4 (11747572_a_at) / RFU HAMP (11756126_x_at) / Fold change /veh HAMP (11756126_x_at) / RFU RNFT2 (11725882_a_at) / Fold change /veh RNFT2 (11725882_a_at) / RFU NR4A2 (11747474_a_at) / Fold change /veh NR4A2 (11747474_a_at) / RFU ABCC12 (11746883_a_at) / Fold change /veh ABCC12 (11746883_a_at) / RFU TMEM136 (11760407_x_at) / Fold change /veh TMEM136 (11760407_x_at) / RFU CLDN22 /// WWC2 (11732394_at) / Fold change /veh CLDN22 /// WWC2 (11732394_at) / RFU HLA-DPB1 (11760878_x_at) / Fold change /veh HLA-DPB1 (11760878_x_at) / RFU SPINT1 (11716480_a_at) / Fold change /veh SPINT1 (11716480_a_at) / RFU GAP43 (11754022_s_at) / Fold change /veh GAP43 (11754022_s_at) / RFU A4GNT (11735810_at) / Fold change /veh A4GNT (11735810_at) / RFU PRB3 (11715151_x_at) / Fold change /veh PRB3 (11715151_x_at) / RFU TUBB4B (11761932_at) / Fold change /veh TUBB4B (11761932_at) / RFU CAPN14 (11732068_a_at) / Fold change /veh CAPN14 (11732068_a_at) / RFU TMCC2 (11721928_a_at) / Fold change /veh TMCC2 (11721928_a_at) / RFU IRGQ (11745062_a_at) / Fold change /veh IRGQ (11745062_a_at) / RFU FAM174B (11720279_a_at) / Fold change /veh FAM174B (11720279_a_at) / RFU TMPRSS4 (11748680_a_at) / Fold change /veh TMPRSS4 (11748680_a_at) / RFU FAM212B (11763350_a_at) / Fold change /veh FAM212B (11763350_a_at) / RFU PLEKHG5 (11743358_a_at) / Fold change /veh PLEKHG5 (11743358_a_at) / RFU ZSCAN30 (11745921_a_at) / Fold change /veh ZSCAN30 (11745921_a_at) / RFU CMKLR1 (11741424_a_at) / Fold change /veh CMKLR1 (11741424_a_at) / RFU LOC101060620 /// MAPK8IP1 (11723275_at) / Fold change /veh LOC101060620 /// MAPK8IP1 (11723275_at) / RFU SPTSSB (11747773_x_at) / Fold change /veh SPTSSB (11747773_x_at) / RFU PRSS12 (11739890_at) / Fold change /veh PRSS12 (11739890_at) / RFU BIN1 (11741810_x_at) / Fold change /veh BIN1 (11741810_x_at) / RFU WNT11 (11732464_a_at) / Fold change /veh WNT11 (11732464_a_at) / RFU C10orf10 (11716521_a_at) / Fold change /veh C10orf10 (11716521_a_at) / RFU C5orf56 (11738089_at) / Fold change /veh C5orf56 (11738089_at) / RFU CYB561 (11721691_x_at) / Fold change /veh CYB561 (11721691_x_at) / RFU ANKRD19P (11752326_a_at) / Fold change /veh ANKRD19P (11752326_a_at) / RFU OR2T12 /// OR2T33 /// OR2T8 (11738714_s_at) / Fold change /veh OR2T12 /// OR2T33 /// OR2T8 (11738714_s_at) / RFU VCAN (11748164_a_at) / Fold change /veh VCAN (11748164_a_at) / RFU JSRP1 (11732532_at) / Fold change /veh JSRP1 (11732532_at) / RFU KRTAP10-11 (11738290_x_at) / Fold change /veh KRTAP10-11 (11738290_x_at) / RFU MYO3A (11730013_a_at) / Fold change /veh MYO3A (11730013_a_at) / RFU EBF3 (11725865_a_at) / Fold change /veh EBF3 (11725865_a_at) / RFU CAMK2N1 (11719241_x_at) / Fold change /veh CAMK2N1 (11719241_x_at) / RFU C5orf56 (11738088_a_at) / Fold change /veh C5orf56 (11738088_a_at) / RFU OLFML3 (11715873_a_at) / Fold change /veh OLFML3 (11715873_a_at) / RFU LOC100653217 /// NTM (11731650_a_at) / Fold change /veh LOC100653217 /// NTM (11731650_a_at) / RFU MAPK11 (11762145_a_at) / Fold change /veh MAPK11 (11762145_a_at) / RFU FIZ1 (11724087_x_at) / Fold change /veh FIZ1 (11724087_x_at) / RFU OASL (11726364_x_at) / Fold change /veh OASL (11726364_x_at) / RFU SOX15 (11748057_x_at) / Fold change /veh SOX15 (11748057_x_at) / RFU CD79A (11719716_a_at) / Fold change /veh CD79A (11719716_a_at) / RFU HIST1H1D (11736915_at) / Fold change /veh HIST1H1D (11736915_at) / RFU CASKIN2 (11723855_a_at) / Fold change /veh CASKIN2 (11723855_a_at) / RFU LOC730098 (11760151_x_at) / Fold change /veh LOC730098 (11760151_x_at) / RFU OR4N2 (11742367_at) / Fold change /veh OR4N2 (11742367_at) / RFU PRRT2 (11749266_a_at) / Fold change /veh PRRT2 (11749266_a_at) / RFU SNX32 (11753110_a_at) / Fold change /veh SNX32 (11753110_a_at) / RFU CDHR5 (11726645_a_at) / Fold change /veh CDHR5 (11726645_a_at) / RFU RCAN1 (11760418_a_at) / Fold change /veh RCAN1 (11760418_a_at) / RFU FAM167A (11723789_a_at) / Fold change /veh FAM167A (11723789_a_at) / RFU FAM26E (11764081_at) / Fold change /veh FAM26E (11764081_at) / RFU ISYNA1 (11749810_s_at) / Fold change /veh ISYNA1 (11749810_s_at) / RFU ACY1 (11761880_at) / Fold change /veh ACY1 (11761880_at) / RFU 11764098_at / Fold change /veh 11764098_at / RFU SAMD14 (11745864_x_at) / Fold change /veh SAMD14 (11745864_x_at) / RFU NPB (11741838_a_at) / Fold change /veh NPB (11741838_a_at) / RFU TMPRSS6 (11731388_a_at) / Fold change /veh TMPRSS6 (11731388_a_at) / RFU KRTAP10-2 (11738614_at) / Fold change /veh KRTAP10-2 (11738614_at) / RFU ARHGAP8 /// PRR5-ARHGAP8 (11727945_x_at) / Fold change /veh ARHGAP8 /// PRR5-ARHGAP8 (11727945_x_at) / RFU KRTAP5-7 /// NADSYN1 (11734609_at) / Fold change /veh KRTAP5-7 /// NADSYN1 (11734609_at) / RFU RASL12 (11751679_a_at) / Fold change /veh RASL12 (11751679_a_at) / RFU CDKN2B (11736163_a_at) / Fold change /veh CDKN2B (11736163_a_at) / RFU PRF1 (11729649_at) / Fold change /veh PRF1 (11729649_at) / RFU, ZNF638 /// ZNF638-IT1 / Fold change vs veh, ZNF638 /// ZNF638-IT1 / RFU, PANK3 / Fold change vs veh, PANK3 / RFU, SH3YL1 / Fold change vs veh, SH3YL1 / RFU, ZEB2 / Fold change vs veh, ZEB2 / RFU, NRIP1 / Fold change vs veh, NRIP1 / RFU, PTTG1IP / Fold change vs veh, PTTG1IP / RFU, CAPN2 / Fold change vs veh, CAPN2 / RFU, MED14 / Fold change vs veh, MED14 / RFU, SNORA58 / Fold change vs veh, SNORA58 / RFU, C1orf63 / Fold change vs veh, C1orf63 / RFU, LRRFIP1 / Fold change vs veh, LRRFIP1 / RFU, NDUFAF7 / Fold change vs veh, NDUFAF7 / RFU, SLC12A2 / Fold change vs veh, SLC12A2 / RFU, IBTK / Fold change vs veh, IBTK / RFU, ESF1 / Fold change vs veh, ESF1 / Fold change vs veh, TMEM50B / RFU, TAOK1 / Fold change vs veh, TAOK1 / RFU, ACBD3 / Fold change vs veh, ACBD3 / RFU, TMA16 / Fold change vs veh, TMA16 / RFU, RWDD3 / Fold change vs veh, RWDD3 / RFU, BCAT1 / Fold change vs veh, BCAT1 / RFU, EDEM3 / Fold change vs veh, EDEM3 / RFU, TMEM33 / Fold change vs veh, TMEM33 / RFU, WDR75 / Fold change vs veh, WDR75 / RFU, AHCTF1 / Fold change vs veh, AHCTF1 / RFU, TFRC / Fold change vs veh, TFRC / RFU, ZDHHC17 / Fold change vs veh, ZDHHC17 / RFU, NOM1 / Fold change vs veh, NOM1 / RFU, ARL8B / Fold change vs veh, ARL8B / RFU, ZBTB11 / Fold change vs veh, ZBTB11 / RFU, TAMM41 / Fold change vs veh, TAMM41 / RFU, KIAA1704 /// LOC100996395 / Fold change vs veh, KIAA1704 /// LOC100996395 / RFU, ING1 / Fold change vs veh, ING1 / RFU, TRMT61B / Fold change vs veh, TRMT61B / RFU, FUBP3 / Fold change vs veh, FUBP3 / RFU, TP53 / Fold change vs veh, TP53 / RFU, TNKS2 / Fold change vs veh, TNKS2 / RFU, ZFP14 / Fold change vs veh, ZFP14 / RFU, ACTR2 / Fold change vs veh, ACTR2 / RFU, PPP3R1 / Fold change vs veh, PPP3R1 / RFU, PIK3R1 / Fold change vs veh, PIK3R1 / RFU, HNRNPA1 / Fold change vs veh, HNRNPA1 / RFU, RNF170 / Fold change vs veh, RNF170 / RFU, ZNF28 / Fold change vs veh, ZNF28 / RFU, RNGTT / Fold change vs veh, RNGTT / RFU, OGT / Fold change vs veh, OGT / RFU, BRD1 / Fold change vs veh, BRD1 / RFU, MARS / Fold change vs veh, MARS / RFU, ZNF655 / Fold change vs veh, ZNF655 / RFU, FAHD1 / Fold change vs veh, FAHD1 / RFU, BDP1 / Fold change vs veh, BDP1 / RFU, LRRCC1 / Fold change vs veh, LRRCC1 / RFU, ARID1A / Fold change vs veh, ARID1A / RFU, ZNF146 / Fold change vs veh, ZNF146 / RFU, ZNF330 / Fold change vs veh, ZNF330 / RFU, GPN3 / Fold change vs veh, GPN3 / RFU, C9orf123 / Fold change vs veh, C9orf123 / RFU, N4BP2L2 / Fold change vs veh, N4BP2L2 / RFU, ARFIP1 / Fold change vs veh, ARFIP1 / RFU, FAM179B / Fold change vs veh, FAM179B / RFU, BCL10 / Fold change vs veh, BCL10 / RFU, UHRF1BP1L / Fold change vs veh, UHRF1BP1L / RFU, BET1 / Fold change vs veh, BET1 / RFU, CNOT2 / Fold change vs veh, CNOT2 / RFU, ZNF268 / Fold change vs veh, ZNF268 / Fold change vs veh, ZNF507 / RFU, DGCR2 / Fold change vs veh, DGCR2 / RFU, WDSUB1 / Fold change vs veh, WDSUB1 / Fold change vs veh, HSP90B1 /// MIR3652 / RFU, ADSS / Fold change vs veh, ADSS / RFU, GK / Fold change vs veh, GK / RFU, ZNF148 / Fold change vs veh, ZNF148 / RFU, TAF9 / Fold change vs veh, TAF9 / RFU, SLC1A5 / Fold change vs veh, SLC1A5 / RFU, SLMO2 / Fold change vs veh, SLMO2 / RFU, ABCC4 / Fold change vs veh, ABCC4 / RFU, LOC101060439 /// RAP1B / Fold change vs veh, LOC101060439 /// RAP1B / RFU, RFX7 / Fold change vs veh, RFX7 / RFU, GTPBP10 / Fold change vs veh, GTPBP10 / RFU, CNEP1R1 / Fold change vs veh, CNEP1R1 / RFU, BIVM-ERCC5 /// ERCC5 / Fold change vs veh, BIVM-ERCC5 /// ERCC5 / RFU, ILF3 / Fold change vs veh, ILF3 / RFU 11762660_at / Fold change /veh 11762660_at / RFU VCAN (11757783_s_at) / Fold change /veh VCAN (11757783_s_at) / RFU DDX43 (11728927_at) / Fold change /veh DDX43 (11728927_at) / RFU KRT8 (11758188_x_at) / Fold change /veh KRT8 (11758188_x_at) / RFU NKD1 (11759106_at) / Fold change /veh NKD1 (11759106_at) / RFU SRD5A1 (11742802_a_at) / Fold change /veh SRD5A1 (11742802_a_at) / RFU TPSAB1 /// TPSB2 (11721975_s_at) / Fold change /veh TPSAB1 /// TPSB2 (11721975_s_at) / RFU GSTM3 (11746129_a_at) / Fold change /veh GSTM3 (11746129_a_at) / RFU IL23R (11737362_x_at) / Fold change /veh IL23R (11737362_x_at) / RFU TMEM51 (11727254_a_at) / Fold change /veh TMEM51 (11727254_a_at) / RFU PIWIL2 (11732686_x_at) / Fold change /veh PIWIL2 (11732686_x_at) / RFU ORM1 (11744905_x_at) / Fold change /veh ORM1 (11744905_x_at) / RFU CCDC152 (11743942_at) / Fold change /veh CCDC152 (11743942_at) / RFU ECM1 (11717891_a_at) / Fold change /veh ECM1 (11717891_a_at) / RFU IL23R (11748794_a_at) / Fold change /veh IL23R (11748794_a_at) / RFU TNFAIP8L3 (11732012_x_at) / Fold change /veh TNFAIP8L3 (11732012_x_at) / RFU MBOAT4 (11741988_at) / Fold change /veh MBOAT4 (11741988_at) / RFU 11764193_at / Fold change /veh 11764193_at / RFU TMEM53 (11763286_at) / Fold change /veh TMEM53 (11763286_at) / RFU MAGEB2 (11727129_at) / Fold change /veh MAGEB2 (11727129_at) / RFU TMEM200A (11744735_a_at) / Fold change /veh TMEM200A (11744735_a_at) / RFU CCDC152 (11751479_a_at) / Fold change /veh CCDC152 (11751479_a_at) / RFU FAM211A (11726209_a_at) / Fold change /veh FAM211A (11726209_a_at) / RFU RGS16 (11746705_a_at) / Fold change /veh RGS16 (11746705_a_at) / RFU VCAN (11755009_s_at) / Fold change /veh VCAN (11755009_s_at) / RFU RHOB (11743442_s_at) / Fold change /veh RHOB (11743442_s_at) / RFU RGS16 (11720943_a_at) / Fold change /veh RGS16 (11720943_a_at) / RFU RGS16 (11720944_at) / Fold change /veh RGS16 (11720944_at) / RFU, VPS4B / Fold change vs veh, VPS4B / RFU, CREB1 / Fold change vs veh, CREB1 / RFU, DNAJC13 / Fold change vs veh, DNAJC13 / RFU, GNAQ / Fold change vs veh, GNAQ / RFU, CDK5R1 / Fold change vs veh, CDK5R1 / RFU, ZRANB3 / Fold change vs veh, ZRANB3 / RFU, CUL4A / Fold change vs veh, CUL4A / RFU, CCNY / Fold change vs veh, CCNY / RFU, UFL1 / Fold change vs veh, UFL1 / RFU, COG3 / Fold change vs veh, COG3 / RFU, DIAPH2 / Fold change vs veh, DIAPH2 / RFU, SKA2 / Fold change vs veh, SKA2 / RFU, AFF3 / Fold change vs veh, AFF3 / RFU, LMF1 / Fold change vs veh, LMF1 / RFU, IPO11 / Fold change vs veh, IPO11 / RFU, DFFB / Fold change vs veh, DFFB / RFU, FOXP1 / Fold change vs veh, FOXP1 / RFU, CARD8 / Fold change vs veh, CARD8 / RFU, STRN3 / Fold change vs veh, STRN3 / RFU, ADK / Fold change vs veh, ADK / RFU, RASSF2 / Fold change vs veh, RASSF2 / RFU, WIPF1 / Fold change vs veh, WIPF1 / RFU, LARP1B / Fold change vs veh, LARP1B / RFU, RASA1 / Fold change vs veh, RASA1 / RFU, RB1 / Fold change vs veh, RB1 / RFU, PPFIA1 / Fold change vs veh, PPFIA1 / RFU, MAT2A / Fold change vs veh, MAT2A / RFU, CCT5 / Fold change vs veh, CCT5 / RFU, WDR92 / Fold change vs veh, WDR92 / RFU, CUX1 / Fold change vs veh, CUX1 / RFU, TTC7A / Fold change vs veh, TTC7A / RFU, TMEM135 / Fold change vs veh, TMEM135 / RFU, DEPTOR / Fold change vs veh, DEPTOR / RFU, CPM / Fold change vs veh, CPM / RFU, DNAJB6 / Fold change vs veh, DNAJB6 / RFU, CACNA2D3 / Fold change vs veh, CACNA2D3 / RFU, DTX4 / Fold change vs veh, DTX4 / RFU, TFCP2 / Fold change vs veh, TFCP2 / RFU, GMCL1 /// GMCL1P1 / Fold change vs veh, GMCL1 /// GMCL1P1 / RFU, AEBP2 / Fold change vs veh, AEBP2 / RFU, SNHG1 /// SNORD22 /// SNORD25 /// SNORD26 /// SNORD27 /// SNORD28 /// SNORD29 /// SNORD31 / Fold change vs veh, SNHG1 /// SNORD22 /// SNORD25 /// SNORD26 /// SNORD27 /// SNORD28 /// SNORD29 /// SNORD31 / Fold change (Aza/veh), C12orf56 (ProbeSet 11735607_a_at) / Fold change (ACY-1035/veh), C12orf56 (ProbeSet 11735607_a_at) / Fold change (Aza/veh), FGFR1OP (ProbeSet 11751329_s_at) / Fold change (ACY-1035/veh), FGFR1OP (ProbeSet 11751329_s_at) / Fold change (Aza/veh), VPS36 (ProbeSet 11739960_a_at) / Fold change (ACY-1035/veh), VPS36 (ProbeSet 11739960_a_at) / RFU SYPL1 (11715823_x_at) / Fold change /veh SYPL1 (11715823_x_at) / RFU IGFBP7 (11715501_s_at) / Fold change /veh IGFBP7 (11715501_s_at) / RFU REEP3 (11722064_at) / Fold change /veh REEP3 (11722064_at) / RFU IGLL1 (11728026_x_at) / Fold change /veh IGLL1 (11728026_x_at): dose or concentration left out as unconfirmed
Details: ProbeSet 11744854_x_at; LIST B

For `Nc1ccc(-c2cccs2)cc1NC(=O)c1ccc2c(c1)cc(C1CC1)n2CCN1CCOCC1` [ACY-1035], the “Fold change vs veh, ZNF28” value was 0.85.
